Measured values from ChEMBL document CHEMBL5465560, “Selectivity Literature for EUbOPEN Chemogenomic Library” (2024).

Key:
[1] = target: T1, Mitogen-activated protein kinase kinase kinase 2 (Homo sapiens) (UniProt Q9Y2U5); experiment: Selectivity interaction (KinomeScan (DiscoverX)) EUB0000092b MAP3K2; details: at 10 µM
T1 sequence (whole entry): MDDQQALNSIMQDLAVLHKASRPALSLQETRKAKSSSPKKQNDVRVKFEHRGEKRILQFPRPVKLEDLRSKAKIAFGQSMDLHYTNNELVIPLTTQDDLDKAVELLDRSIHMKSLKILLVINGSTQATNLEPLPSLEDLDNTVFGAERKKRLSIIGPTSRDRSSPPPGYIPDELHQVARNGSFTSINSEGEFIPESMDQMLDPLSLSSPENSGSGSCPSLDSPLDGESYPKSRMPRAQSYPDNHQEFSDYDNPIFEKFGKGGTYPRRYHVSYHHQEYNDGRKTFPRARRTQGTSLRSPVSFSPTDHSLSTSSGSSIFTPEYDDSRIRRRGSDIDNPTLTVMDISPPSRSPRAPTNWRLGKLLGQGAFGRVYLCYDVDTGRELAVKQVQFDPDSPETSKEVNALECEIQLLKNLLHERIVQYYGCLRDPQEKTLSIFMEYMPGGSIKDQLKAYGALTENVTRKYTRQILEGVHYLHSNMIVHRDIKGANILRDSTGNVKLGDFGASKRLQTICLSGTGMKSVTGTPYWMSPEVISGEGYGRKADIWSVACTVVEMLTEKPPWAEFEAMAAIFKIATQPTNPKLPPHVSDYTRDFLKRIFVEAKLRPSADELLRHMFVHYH

[2] = target: Serine/threonine-protein kinase MRCK gamma (Homo sapiens) (UniProt Q6DT37); details: at 10 µM
[3] = target: T1, Mitogen-activated protein kinase kinase kinase 2 (Homo sapiens); experiment: Selectivity interaction (ActivX KiNativ screen (kinase selectivity in THP-1 cell lysates)) EUB0000639a MAP3K2; assay type: subcellular; details: lysate, at 0.2 µM
[4] = system: T2, Receptor-type tyrosine-protein kinase FLT3 (Homo sapiens), P36888 [N841I]; experiment: Selectivity interaction (KinomeScan (DiscoverX)) EUB0000607a FLT3; details: at 10 µM
T2 sequence (whole entry): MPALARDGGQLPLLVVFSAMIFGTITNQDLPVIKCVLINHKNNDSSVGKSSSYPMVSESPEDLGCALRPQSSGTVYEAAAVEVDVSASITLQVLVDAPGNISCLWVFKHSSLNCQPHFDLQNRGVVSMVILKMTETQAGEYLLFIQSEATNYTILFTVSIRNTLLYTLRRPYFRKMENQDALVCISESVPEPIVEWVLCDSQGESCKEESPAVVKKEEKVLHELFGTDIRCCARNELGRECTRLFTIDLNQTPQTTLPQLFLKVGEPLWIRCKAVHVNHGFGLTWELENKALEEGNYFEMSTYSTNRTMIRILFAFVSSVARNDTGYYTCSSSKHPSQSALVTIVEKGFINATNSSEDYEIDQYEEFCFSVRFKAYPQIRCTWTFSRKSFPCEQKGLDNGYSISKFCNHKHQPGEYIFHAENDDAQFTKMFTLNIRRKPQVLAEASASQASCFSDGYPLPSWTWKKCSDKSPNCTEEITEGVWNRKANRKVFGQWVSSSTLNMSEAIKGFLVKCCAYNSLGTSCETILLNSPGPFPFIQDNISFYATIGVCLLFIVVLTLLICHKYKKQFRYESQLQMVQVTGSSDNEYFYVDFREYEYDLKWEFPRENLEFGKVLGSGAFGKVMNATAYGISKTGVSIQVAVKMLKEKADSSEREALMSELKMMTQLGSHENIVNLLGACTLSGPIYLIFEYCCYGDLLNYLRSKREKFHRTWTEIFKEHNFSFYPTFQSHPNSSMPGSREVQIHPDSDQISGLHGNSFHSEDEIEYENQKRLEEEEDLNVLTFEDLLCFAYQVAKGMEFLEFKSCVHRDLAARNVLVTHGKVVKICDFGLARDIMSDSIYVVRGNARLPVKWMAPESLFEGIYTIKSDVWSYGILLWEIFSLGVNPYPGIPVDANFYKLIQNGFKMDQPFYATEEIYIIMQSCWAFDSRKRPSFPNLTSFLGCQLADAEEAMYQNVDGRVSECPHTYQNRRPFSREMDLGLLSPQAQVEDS

[5] = target: Atypical kinase COQ8A, mitochondrial (Homo sapiens, UniProt Q8NI60); experiment: Selectivity interaction (KinomeScan (DiscoverX)) EUB0000595a ADCK3; details: at 10 µM
[6] = target: T3, Mitogen-activated protein kinase kinase kinase 7 (Homo sapiens) (UniProt O43318); experiment: Selectivity interaction (Kinase panel (literature)) EUB0001199aCl MAP3K7; details: at 1 µM
T3 sequence (whole entry): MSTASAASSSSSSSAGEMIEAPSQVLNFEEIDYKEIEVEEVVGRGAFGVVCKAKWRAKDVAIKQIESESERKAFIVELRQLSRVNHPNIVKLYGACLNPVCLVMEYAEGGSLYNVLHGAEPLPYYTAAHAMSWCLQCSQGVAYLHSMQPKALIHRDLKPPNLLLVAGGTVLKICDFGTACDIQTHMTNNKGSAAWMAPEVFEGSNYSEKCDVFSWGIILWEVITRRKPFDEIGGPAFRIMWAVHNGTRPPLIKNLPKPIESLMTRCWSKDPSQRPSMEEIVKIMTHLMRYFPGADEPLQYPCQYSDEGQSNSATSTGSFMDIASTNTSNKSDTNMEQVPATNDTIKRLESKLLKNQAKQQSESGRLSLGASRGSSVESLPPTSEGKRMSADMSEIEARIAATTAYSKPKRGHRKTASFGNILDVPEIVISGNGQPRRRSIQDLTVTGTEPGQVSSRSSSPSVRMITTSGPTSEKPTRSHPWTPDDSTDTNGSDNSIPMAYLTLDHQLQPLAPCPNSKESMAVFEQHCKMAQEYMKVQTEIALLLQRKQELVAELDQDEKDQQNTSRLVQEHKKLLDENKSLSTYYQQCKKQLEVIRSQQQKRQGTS

Serine/threonine-protein kinase MRCK gamma (Homo sapiens), sequence (Q6DT37 whole entry): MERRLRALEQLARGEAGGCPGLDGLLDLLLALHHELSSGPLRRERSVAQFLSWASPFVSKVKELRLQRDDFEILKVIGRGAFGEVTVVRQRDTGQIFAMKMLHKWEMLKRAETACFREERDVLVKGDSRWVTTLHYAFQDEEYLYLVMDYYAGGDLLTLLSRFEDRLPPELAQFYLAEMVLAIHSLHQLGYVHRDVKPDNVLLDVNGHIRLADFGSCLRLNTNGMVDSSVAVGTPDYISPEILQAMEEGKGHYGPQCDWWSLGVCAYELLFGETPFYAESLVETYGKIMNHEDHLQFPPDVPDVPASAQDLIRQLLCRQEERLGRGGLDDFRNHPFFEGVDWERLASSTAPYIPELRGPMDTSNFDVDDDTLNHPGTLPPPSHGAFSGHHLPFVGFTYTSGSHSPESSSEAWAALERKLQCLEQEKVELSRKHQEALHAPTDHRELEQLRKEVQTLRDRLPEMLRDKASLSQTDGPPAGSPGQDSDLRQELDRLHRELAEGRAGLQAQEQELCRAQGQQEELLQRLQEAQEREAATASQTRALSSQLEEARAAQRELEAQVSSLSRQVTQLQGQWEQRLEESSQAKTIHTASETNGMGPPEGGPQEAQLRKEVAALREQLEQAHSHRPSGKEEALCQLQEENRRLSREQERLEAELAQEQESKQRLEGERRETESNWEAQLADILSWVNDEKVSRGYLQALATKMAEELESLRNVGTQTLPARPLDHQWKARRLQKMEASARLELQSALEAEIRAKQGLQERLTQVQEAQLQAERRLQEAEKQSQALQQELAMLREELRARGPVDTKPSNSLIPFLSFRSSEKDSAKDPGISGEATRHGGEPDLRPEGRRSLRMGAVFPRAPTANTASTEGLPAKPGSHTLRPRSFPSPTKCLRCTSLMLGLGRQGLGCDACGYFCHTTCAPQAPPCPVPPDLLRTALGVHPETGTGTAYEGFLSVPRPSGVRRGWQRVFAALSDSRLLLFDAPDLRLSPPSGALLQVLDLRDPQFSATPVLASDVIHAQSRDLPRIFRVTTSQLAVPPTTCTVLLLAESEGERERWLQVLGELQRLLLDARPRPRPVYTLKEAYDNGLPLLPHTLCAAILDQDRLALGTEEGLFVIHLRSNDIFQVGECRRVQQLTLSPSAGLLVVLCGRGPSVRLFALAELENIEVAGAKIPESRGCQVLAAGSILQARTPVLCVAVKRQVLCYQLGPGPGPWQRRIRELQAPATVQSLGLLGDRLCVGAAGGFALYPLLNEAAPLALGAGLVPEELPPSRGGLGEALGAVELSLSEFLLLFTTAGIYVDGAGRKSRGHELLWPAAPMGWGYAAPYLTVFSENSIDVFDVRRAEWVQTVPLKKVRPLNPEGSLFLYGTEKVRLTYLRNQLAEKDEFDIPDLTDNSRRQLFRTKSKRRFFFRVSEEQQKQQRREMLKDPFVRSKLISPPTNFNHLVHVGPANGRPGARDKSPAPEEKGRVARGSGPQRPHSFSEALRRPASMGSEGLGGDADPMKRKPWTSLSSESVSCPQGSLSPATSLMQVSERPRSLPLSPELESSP
Atypical kinase COQ8A, mitochondrial, sequence (Q8NI60 163-647 limits assumed): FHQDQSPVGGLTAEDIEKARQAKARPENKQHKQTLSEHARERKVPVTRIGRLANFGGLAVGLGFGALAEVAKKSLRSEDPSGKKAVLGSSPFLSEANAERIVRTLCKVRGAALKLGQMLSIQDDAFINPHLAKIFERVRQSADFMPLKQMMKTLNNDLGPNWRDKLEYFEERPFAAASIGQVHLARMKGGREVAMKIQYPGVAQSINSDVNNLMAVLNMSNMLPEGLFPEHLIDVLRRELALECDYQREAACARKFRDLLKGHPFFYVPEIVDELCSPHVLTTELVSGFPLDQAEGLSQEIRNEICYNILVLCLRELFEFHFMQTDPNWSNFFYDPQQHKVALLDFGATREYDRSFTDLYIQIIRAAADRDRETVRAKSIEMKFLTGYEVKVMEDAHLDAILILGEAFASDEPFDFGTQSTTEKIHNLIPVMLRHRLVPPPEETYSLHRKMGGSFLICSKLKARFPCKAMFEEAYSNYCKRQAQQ

CCC(=O)N1CCN(c2ccc(-n3c(=O)ccc4cnc5ccc(-c6cnc7ccccc7c6)cc5c43)cc2C(F)(F)F)CC1
% of control [1]: 62%

Cc1cc([C@@H](C)Nc2ccccc2C(=O)O)c2nc(N3CCOCC3)cc(=O)n2c1 [AZD-6482]
% of control [2]: 100%

CC[C@@H]1[C@H](F)C(=O)N[C@@H]1COc1nccc2cc(C(N)=O)c(OC)cc12 [ZIMLOVISERTIB]
% of inhibition [3]: -1.4%

CNC(=O)Nc1ccc(-c2nc(N3CC4CCC(C3)O4)c3cnn(C4CCC5(CC4)OCCO5)c3n2)cc1
% of control [4]: 89%

COCC(=O)NC/C=C/c1ccc2ncnc(Nc3ccc(Oc4ccc(C)nc4)c(C)c3)c2c1 [CP-724714]
% of control [5]: 100%

CN1Cc2nccc(-c3cn(C)nc3-c3ccc(F)cc3)c2C1=O
% of inhibition [6]: 3%
